Each molecule was assayed on IL-2 (assay: PHA-IL2 (cell activation and cytokine analysis)). Details: 50% inhibition concentration class.
Assay type: cell-based
Outline: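 Cells were seeded in 96-well plates at 1.0-2.0×10^6 cells/ml in 150 ul of RPMI containing 0.5% fetal calf serum. Test compounds, at up to ≤20 uM, were preincubated with the cells for 30 minutes, then phytohemagglutinin (PHA) was added and cultures were stimulated for 24-48 hours at 37 degrees C./5% CO2. Supernatant IL-2 was then quantified by standard ELISA.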

Compound | IC50
O=C(COc1ccccc1-c1ccc(F)cc1O)N1CCC(CCc2cccc(OCCN3CCOCC3)c2)CC1 [Compound 355] | 1 to 10 µM
O=C(COc1ccc(C(F)(F)F)cc1-c1ccc(F)cc1O)N1CCC(CCc2cccc(OCCN3CCOCC3)c2)CC1 [Compound 356] | 1 to 10 µM
O=C(COc1cccnc1-c1ccc(F)cc1O)N1CCC(CCc2ccc(OCCN3CCOCC3)cc2)CC1 [Compound 358] | 1 to 10 µM
O=C(COc1ccccc1-c1ccc(F)cc1O)N1CCC(CCc2cccc(OCCN3CCCC3)c2)CC1 [Compound 359] | 1 to 10 µM
O=C(COc1cccnc1-c1ccc(F)cc1O)N1CCC(CCc2cccc(OCCN3CCCCC3)c2)CC1 [Compound 360] | 1 to 10 µM
COc1cccc(CCC2CCN(C(=O)COc3cccnc3-c3ccc(C#N)cc3)CC2)c1 [Compound 361] | 1 to 10 µM
COc1cccc(CCC2CCN(C(=O)COc3cccnc3-c3ccc4[nH]ncc4c3)CC2)c1 [Compound 362] | 1 to 10 µM
COc1cccc(CCC2CCN(C(=O)COc3cccnc3-c3ccc(C(F)(F)F)cc3O)CC2)c1 [Compound 363] | 1 to 10 µM
COc1cccc(CCC2CCN(C(=O)COc3ccccc3-c3ccc(C(F)(F)F)cc3O)CC2)c1 [Compound 364] | 1 to 10 µM
O=C(COc1ccccc1-c1ccc(C(F)(F)F)cc1O)N1CCC(CCc2ccc3c(c2)OCO3)CC1 [Compound 365] | 1 to 10 µM
CN1CC(NC(=O)c2ccc(OCC(=O)N3CCC(CCc4ccccc4)CC3)c(-c3ccc(C#N)cc3)c2)C1 [Compound 367] | 1 to 10 µM
N#Cc1ccc(-c2cc(C(=O)NC3CCOCC3)ccc2OCC(=O)N2CCC(CCc3ccccc3)CC2)cc1 [Compound 368] | 1 to 10 µM
N#Cc1ccc(-c2cc(C(=O)Nc3ccccc3)ccc2OCC(=O)N2CCC(CCc3ccccc3)CC2)cc1 [Compound 369] | 1 to 10 µM
O=C(COc1ccccc1-c1ccc2[nH]cnc2c1)N1CCC(CCc2ccccc2)CC1 [Compound 370] | 1 to 10 µM
N#Cc1ccc(OCC(=O)N2CCC(CCc3ccccc3)CC2)c(-c2ccc3[nH]cnc3c2)c1 [Compound 372] | 1 to 10 µM
COc1cccc(CCC2CCN(C(=O)COc3cccnc3-c3ccc4c(cnn4C)c3)CC2)c1 [Compound 373] | 1 to 10 µM
Cn1ncc2cc(-c3ncccc3OCC(=O)N3CCC(CCc4cccc(OCCN5CCOCC5)c4)CC3)ccc21 [Compound 374] | 10 to 50 µM
Cn1ncc2cc(-c3ncccc3OCC(=O)N3CCC(CCc4ccc5c(c4)OCO5)CC3)ccc21 [Compound 375] | 1 to 10 µM
O=C(COc1cccnc1-c1ccc2[nH]ccc2c1)N1CCC(CCc2ccccc2)CC1 [Compound 376] | 1 to 10 µM
COc1cccc(CCC2CCN(C(=O)COc3cccnc3-c3ccc4[nH]ccc4c3)CC2)c1 [Compound 377] | 1 to 10 µM
COc1cccc(CCC2CCN(C(=O)COc3cccnc3-c3ccc4c(ccn4C)c3)CC2)c1 [Compound 378] | 1 to 10 µM
Cn1ccc2cc(-c3ncccc3OCC(=O)N3CCC(CCc4ccc5c(c4)OCO5)CC3)ccc21 [Compound 379] | 1 to 10 µM
Cn1ccc2cc(-c3ncccc3OCC(=O)N3CCC(CCc4cccc(OCCN5CCOCC5)c4)CC3)ccc21 [Compound 380] | 1 to 10 µM
COc1cc(CCC2CCN(C(=O)COc3cccnc3-c3ccc(F)cc3O)CC2)ccc1OCCN1CCOCC1 [Compound 381] | 10 to 50 µM

Compound | IC50
O=C(COc1ccccc1-c1ccc2[nH]cnc2c1)N1CCC(CCc2ccc3c(c2)OCO3)CC1 [Compound 382] | 1 to 10 µM
O=C(COc1ccccc1-c1ccc2[nH]cnc2c1)N1CCC(CCc2ccc(O)cc2)CC1 [Compound 383] | 1 to 10 µM
Cn1ccc2cc(-c3ccccc3OCC(=O)N3CCC(CCc4ccc5c(c4)OCO5)CC3)ccc21 [Compound 384] | 1 to 10 µM
COc1cccc(CCC2CCN(C(=O)COc3ccc(S(N)(=O)=O)cc3-c3ccc(C#N)cc3)CC2)c1 [Compound 385] | 1 to 10 µM
COc1cccc(CCC2CCN(C(=O)COc3ccc(S(N)(=O)=O)cc3-c3ccc(F)cc3O)CC2)c1 [Compound 386] | 1 to 10 µM
COc1cccc(CCC2CCN(C(=O)COc3ccccc3-c3ccc4[nH]c(C)nc4c3)CC2)c1 [Compound 387] | 1 to 10 µM
COc1cccc(CCC2CCN(C(=O)COc3ccc(S(=O)(=O)NC(C)C)cc3-c3ccc(F)cc3O)CC2)c1 [Compound 389] | 1 to 10 µM
CC(C)NS(=O)(=O)c1ccc(OCC(=O)N2CCC(CCc3ccc4c(c3)OCO4)CC2)c(-c2ccc(F)cc2O)c1 [Compound 390] | 1 to 10 µM
COc1ccc(CCC2CCN(C(=O)COc3ccccc3-c3ccc(F)cc3O)CC2)cc1OCCN1CCOCC1 [Compound 391] | 1 to 10 µM
O=C(COc1ccccc1-c1ccc(F)cc1O)N1CCC(CCc2ccncc2)CC1 [Compound 392] | 1 to 10 µM
O=C(COc1ccccc1-c1ccc(F)cc1O)N1CCC(CCc2cccnc2)CC1 [Compound 393] | 1 to 10 µM
O=C(COc1cccnc1-c1ccc2[nH]ncc2c1)N1CCC(CCc2ccncc2)CC1 [Compound 396] | 1 to 10 µM
O=C(COc1cccnc1-c1ccc(F)cc1O)N1CCC(CCc2ccncc2)CC1 [Compound 397] | 1 to 10 µM
C#CCOc1ccc(CCC2CCN(C(=O)COc3ccccc3-c3ccc(C(=O)c4ccccc4)cc3)CC2)cc1 [Compound 412] | 1 to 10 µM
C#CCOc1cccc(CCC2CCN(C(=O)COc3ccccc3-c3ccc(C(=O)c4ccccc4)cc3)CC2)c1 [Compound 416] | 1 to 10 µM
C#CCOc1ccc(C(=O)c2ccc(-c3ccccc3OCC(=O)N3CCC(CCc4cccc(OC(C)C)c4)CC3)cc2)cc1 [Compound 419] | 1 to 10 µM
CC(C)Oc1cccc(CCC2CCN(C(=O)COc3ccccc3-c3ccc(C(=O)c4ccc(O)cc4)cc3)CC2)c1 [Compound 421] | 1 to 10 µM
O=C(COc1ccccc1-c1cnccn1)N1CCC(CCc2ccccc2)CC1 [Compound 423] | 1 to 10 µM
Cc1cnc(-c2ccccc2OCC(=O)N2CCC(CCc3ccccc3)CC2)cn1 [Compound 424] | 1 to 10 µM
Cc1cnc(C#CC2CCN(C(=O)COc3ccc(C#N)cc3-c3ccc(C#N)cc3)CC2)cn1 [Compound 425] | 1 to 10 µM
Cc1cnc(CCC2CCN(C(=O)COc3ccc(C#N)cc3-c3ccc(C#N)cc3)CC2)cn1 [Compound 426] | 1 to 10 µM
Cc1ccc(C#CC2CCN(C(=O)COc3ccc(C#N)cc3-c3ccc(C#N)cc3)CC2)nn1 [Compound 428] | 1 to 10 µM
N#Cc1ccc(-c2cc(C#N)ccc2OCC(=O)N2CCC(C#Cc3cnccn3)CC2)cc1 [Compound 429] | 1 to 10 µM

Results, then the molecule that gave them:

IC50 | Compound
< 1 µM | COc1cccc(CCC2CCN(C(=O)COc3ccc(C(F)(F)F)cc3-c3ccc(F)cc3O)CC2)c1 [Compound 353]
1 to 10 µM | N#Cc1ccc(OCC(=O)N2CCC(CCc3cccc(OCCN4CCOCC4)c3)CC2)c(-c2ccc(F)cc2O)c1 [Compound 354]
< 1 µM | N#Cc1ccc(OCC(=O)N2CCC(CCc3ccc(OCCN4CCOCC4)cc3)CC2)c(-c2ccc(F)cc2O)c1 [Compound 357]
< 1 µM | N#Cc1ccc(-c2cc(C(=O)NCc3ccccc3)ccc2OCC(=O)N2CCC(CCc3ccccc3)CC2)cc1 [Compound 366]
< 1 µM | COc1cccc(CCC2CCN(C(=O)COc3ccccc3-c3ccc4[nH]cnc4c3)CC2)c1 [Compound 371]
< 1 µM | Cc1nc2cc(-c3ccccc3OCC(=O)N3CCC(CCc4ccc5c(c4)OCO5)CC3)ccc2[nH]1 [Compound 388]
< 1 µM | CC(C)Oc1cccc(CCC2CCN(C(=O)COc3ccccc3-c3ccc4[nH]cnc4c3)CC2)c1 [Compound 398]
< 1 µM | CC(C)Oc1cccc(CCC2CCN(C(=O)COc3ccc(C#N)cc3-c3ccc(F)cc3O)CC2)c1 [Compound 399]
< 1 µM | CC(C)Oc1cccc(CCC2CCN(C(=O)COc3ccccc3-c3ccc(F)cc3O)CC2)c1 [Compound 400]
< 1 µM | N#Cc1ccc(OCC(=O)N2CCC(CCc3cccc4ccccc34)CC2)c(-c2ccc(F)cc2O)c1 [Compound 401]
< 1 µM | O=C(COc1ccccc1-c1ccc2[nH]cnc2c1)N1CCC(CCc2cccc3ccccc23)CC1 [Compound 402]
< 1 µM | N#Cc1ccc(-c2ccccc2C2CC2C(=O)N2CCC(CCc3ccccc3)CC2)cc1 (stereo not shown) [Compound 404]
< 1 µM | O=C(C1CC1c1ccccc1-c1ccc(F)cc1O)N1CCC(CCc2ccccc2)CC1 (stereo not shown) [Compound 405]
< 1 µM | N#Cc1ccc(-c2ccccc2OCC(=O)N2CCC(CCc3cccc(OC4CC4)c3)CC2)cc1 [Compound 406]
< 1 µM | N#Cc1ccc(OCC(=O)N2CCC(CCc3cccc(OC4CC4)c3)CC2)c(-c2ccc(F)cc2O)c1 [Compound 407]
< 1 µM | CC(C)Oc1cccc(CCC2CCN(C(=O)COc3cccnc3-c3ccc(F)cc3O)CC2)c1 [Compound 408]
< 1 µM | N#Cc1ccc(OCC(=O)N2CCC(CCc3cccc(OC4CCCC4)c3)CC2)c(-c2ccc(F)cc2O)c1 [Compound 409]
< 1 µM | O=C(COc1cccnc1-c1ccc(F)cc1O)N1CCC(CCc2cccc(OC3CCCC3)c2)CC1 [Compound 410]
< 1 µM | CC(C)Oc1cccc(CCC2CCN(C(=O)COc3cccnc3-c3ccc(C#N)cc3)CC2)c1 [Compound 411]
< 1 µM | CC(C)Oc1cccc(CCC2CCN(C(=O)COc3ccc(C#N)cc3-c3ccccc3O)CC2)c1 [Compound 414]
< 1 µM | O=C(c1ccccc1)c1ccc(-c2ccccc2OCC(=O)N2CCC(CCc3cccc(O)c3)CC2)cc1 [Compound 415]
< 1 µM | N#Cc1ccc(OCC(=O)N2CCC(CCc3cccc(O)c3)CC2)c(-c2ccc(C(=O)c3ccccc3)cc2)c1 [Compound 417]
< 1 µM | C#CCOc1cccc(CCC2CCN(C(=O)COc3ccc(C#N)cc3-c3ccc(C(=O)c4ccccc4)cc3)CC2)c1 [Compound 418]
< 1 µM | N#Cc1ccc(-c2cc(C#N)ccc2OCC(=O)N2CCC(CCc3ccc4c(c3)OCO4)CC2)cc1 [Compound 420]
< 1 µM | Cc1ccc(-c2ccccc2OCC(=O)N2CCC(CCc3ccccc3)CC2)nn1 [Compound 422]
< 1 µM | CC(C)Oc1ccccc1CCC1CCN(C(=O)COc2ccccc2-c2ccc(C#N)cc2)CC1 [Compound 427]
